Reference: ChEMBL document CHEMBL5331107 (J Med Chem, 2023)
pEC50: −log10 of the molar value.

Experiments:
[1] = target: hERG (Homo sapiens, UniProt Q12809); test: Inhibition of hERG expressed in CHO cells at 0.1 uM at -80 mV holding potential by manual patch-clamp electrophysiology method relative to control; type: toxicity, cell-based; settings: CHO cells expressing hERG
[2] = Metabolic stability in human plasma assessed as half-life incubated for 120 mins by LC-MS/MS analysis; type: ADME, cell-free
[3] = Metabolic stability in human plasma assessed as compound remaining incubated for 120 mins by LC-MS/MS analysis; type: ADME, cell-free; settings: read-out: Stability
[4] = Cytotoxicity against human MT4 cells assessed as reduction in cell viability incubated for 5 days by MTT assay; type: toxicity, cell-based; settings: time 5 day
[5] = Water solubility of the compound in phosphate buffer at pH 7.0
[6] = Water solubility of the compound in phosphate buffer at pH 7.4; settings: phosphate buffer
[7] = Metabolic stability in human liver microsomes assessed as half-life incubated for 60 mins in the presence of NADPH by LC-MS/MS analysis; type: ADME, Microsome; settings: liver microsomes
[8] = Metabolic stability in human liver microsomes assessed as compound remaining measured after 60 mins in the presence of NADPH by LC-MS/MS analysis; type: ADME, Microsome; settings: liver microsomes, read-out: Stability
[9] = system: Human immunodeficiency virus 1; test: Antiviral activity against NNRTI-resistant HIV-1 harboring K103N mutant infected in human MT4 cells assessed as protection against virus-induced cytopathic effect incubated for 5 days by MTT assay; type: functional, organism-based; settings: Human immunodeficiency virus 1, MT4, 120 h
[10] = Metabolic stability in human liver microsomes assessed as intrinsic clearance incubated for 60 mins in the presence of NADPH by LC-MS/MS analysis; settings: liver microsomes
[11] = Metabolic stability in human liver assessed as intrinsic clearance incubated for 60 mins in the presence of NADPH by LC-MS/MS analysis; type: ADME, tissue-based; settings: read-out: CLH
[12] = system: Human immunodeficiency virus 1; type: functional, organism-based; settings: Human immunodeficiency virus 1, MT4, 120 h
[13] = system: Human immunodeficiency virus 1; type: functional, organism-based; settings: Human immunodeficiency virus 1, MT4, 120 h; remark: listed apart in the source
[14] = Metabolic stability in human plasma assessed as compound hydrolysis incubated for 120 mins by LC-MS/MS analysis; type: ADME, cell-free; settings: 2 h

Sequence of hERG (Q12809 whole entry): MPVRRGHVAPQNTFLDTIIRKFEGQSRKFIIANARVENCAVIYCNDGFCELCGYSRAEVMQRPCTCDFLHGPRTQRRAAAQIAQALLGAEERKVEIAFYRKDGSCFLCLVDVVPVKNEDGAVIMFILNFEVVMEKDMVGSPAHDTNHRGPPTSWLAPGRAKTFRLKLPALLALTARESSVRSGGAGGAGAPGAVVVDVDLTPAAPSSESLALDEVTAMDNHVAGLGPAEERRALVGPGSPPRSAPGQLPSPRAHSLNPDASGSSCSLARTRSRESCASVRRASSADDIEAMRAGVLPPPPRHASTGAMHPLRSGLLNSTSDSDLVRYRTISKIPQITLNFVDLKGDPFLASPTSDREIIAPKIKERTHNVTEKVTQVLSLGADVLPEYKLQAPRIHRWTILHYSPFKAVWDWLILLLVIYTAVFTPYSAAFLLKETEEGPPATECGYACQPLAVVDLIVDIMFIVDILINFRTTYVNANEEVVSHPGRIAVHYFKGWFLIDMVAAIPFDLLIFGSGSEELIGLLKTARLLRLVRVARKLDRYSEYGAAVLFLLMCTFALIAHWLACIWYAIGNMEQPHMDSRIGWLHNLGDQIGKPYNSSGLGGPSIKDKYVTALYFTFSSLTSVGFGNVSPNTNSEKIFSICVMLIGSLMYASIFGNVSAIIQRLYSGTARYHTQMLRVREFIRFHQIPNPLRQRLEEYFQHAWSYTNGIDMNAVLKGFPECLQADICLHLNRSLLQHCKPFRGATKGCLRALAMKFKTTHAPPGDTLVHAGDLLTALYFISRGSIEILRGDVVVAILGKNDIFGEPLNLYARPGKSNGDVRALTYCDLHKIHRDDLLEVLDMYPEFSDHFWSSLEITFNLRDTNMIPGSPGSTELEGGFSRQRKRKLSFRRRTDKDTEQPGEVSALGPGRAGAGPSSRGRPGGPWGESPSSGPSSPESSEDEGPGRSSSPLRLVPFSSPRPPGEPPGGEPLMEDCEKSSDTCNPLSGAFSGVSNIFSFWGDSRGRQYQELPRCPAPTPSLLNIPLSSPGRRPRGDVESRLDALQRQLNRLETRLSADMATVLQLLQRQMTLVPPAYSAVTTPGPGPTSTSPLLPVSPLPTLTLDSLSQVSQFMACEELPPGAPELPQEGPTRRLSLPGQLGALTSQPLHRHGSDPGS

Stability [14] | SMILES | inhibition at 0.1 µM [1] | half-life [2] | remaining at 2 h [3] | CC50 at 120 h [4] | solubility [5] | solubility [6] | half-life [7] | remaining at 1 h [8] | pEC50 [9] | microsomal CLint at 1 h [10] | CLint scaled [11] | pEC50 [12] | pEC50 [13]
– | COc1cc(N)c(Cl)cc1C(=O)NC1CCN(CCCOc2ccc(F)cc2)CC1OC (stereo not given) [CISAPRIDE] | 64% | – | – | – | – | – | – | – | – | – | – | – | –
– | Cc1cc(C#N)cc(C)c1Oc1nc(Nc2ccc(C#N)cc2)nc(N)c1Br [ETRAVIRINE] | – | > 4.82 h | 83.2% | > 4610 nM | < 1 µg/mL | < 1 µg/mL | 1.09 h | 50.2% | 8.40 | 21.2 µL/min/mg | 19 mL/min/kg | 7.18 | 7.49
Unstable | CC(C)[N+](C)(CCOC(=O)C1c2ccccc2Oc2ccccc21)C(C)C.[Br-] [PROPANTHELINE BROMIDE] | – | 0.167 h | – | – | – | – | – | – | – | – | – | – | –
